Test results as given in article PMC11784839, “Monoaminergic neurotransmitters are bimodal effectors of tau aggregation” (Science Advances, 2025).

Target: tau (Homo sapiens, UniProt P10636)
Experiment: MCE Phenols Library screening, tau biosensor cell seeding assay (AvZ)
Format: cell-based
Details: for Z repl 1 / Z Repl 2: Z score; for Z repl 1 / raw data 1: replicate 1; for Z Repl 2 / raw data 2: replicate 2; for AvZ (average z score of seeding, SDs from the mean level of seeding): 10 μM phenol in cell cultures, AD brain homogenate preincubated 16 hours, two biological replicates, positive = catalyzes seeding, negative = inhibits
[1] = average Z score of the two replicates, tau seeding
[2] = average Z score of the two replicates, MCE Phenols Library screen
[3] = average puncta of the two replicates
[4] = average Z score of two replicates, Phenols Library screen
[5] = average Z score of the two replicates, tau biosensor seeding, MCE Phenols Library screen

tau, sequence (P10636 623-695 limits assumed): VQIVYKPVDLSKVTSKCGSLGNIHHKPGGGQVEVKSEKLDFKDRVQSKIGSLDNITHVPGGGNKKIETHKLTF

| Compound | Z repl 1 | Z Repl 2 | av Z [1] | av puncta (average of raw data 1 and 2) | raw data 1 (puncta) | raw data 2 (puncta) | av Z [2] | av puncta [3] | raw data 1 (raw puncta) | raw data 2 (raw puncta) | AvZ (average z score of seeding, SDs from the mean level of seeding) | av Z [4] | av Z [5] |
| --- | --- | --- | --- | --- | --- | --- | --- | --- | --- | --- | --- | --- | --- |
| C/C=C/c1cc(OC)c2c(c1)C(C)C(c1ccc(O)c(OC)c1)O2 (centres unmarked) [Dehydrodiisoeugenol] | 0.835 | 0.419 | 0.627 | 26809.6 | 36377.1 | 17242.2 | – | – | – | – | – | – | – |
| O=C(/C=C/c1ccc(O)cc1)OC[C@H]1O[C@@H](Oc2c(-c3ccc(O)cc3)oc3cc(O)cc(O)c3c2=O)[C@H](O)[C@@H](O)[C@@H]1O [Tribuloside] | -0.731 | -0.145 | – | – | – | – | -0.438 | 14393.7 | 17568.8 | 11218.6 | – | – | – |
| O=C(/C=C/c1ccc(O)c(O)c1)O[C@@H](C(=O)O)[C@@H](O)C(=O)O [Caftaric acid] | -0.317 | -0.61 | – | – | 22545.7 | 6248.57 | – | 14397.2 | – | – | -0.464 | – | – |
| O=C(O)[C@H]1O[C@@H](Oc2cc(O)c3c(=O)cc(-c4ccc(O)c(O)c4)oc3c2)[C@H](O)[C@@H](O)[C@@H]1O [Luteolin 7-O-glucuronide] | -0.6 | -0.013 | – | – | – | – | -0.307 | 15884.9 | 19142 | 12627.8 | – | – | – |
| O=c1c(O)c(-c2ccc(O)c(O)c2)oc2cc(O[C@@H]3O[C@H](CO)[C@@H](O)[C@H](O)[C@H]3O)c(O)c(O)c12 [Quercetagitrin] | -1.577 | -1.176 | – | 3815.32 | 7422.91 | 207.732 | -1.376 | – | – | – | – | – | – |
| O=C(O)c1cc(O)c2c(c1)C(=O)c1cccc(O[C@@H]3O[C@H](CO)[C@@H](O)[C@H](O)[C@H]3O)c1C2=O [Rhein 8-Glucoside] | 0.64 | 0.434 | 0.537 | 25718.8 | 34038.2 | 17399.4 | – | – | – | – | – | – | – |
| C[C@@H]1CC(=O)c2c(ccc3c2C(=O)c2cccc(O)c2C3=O)C1 [Ochromycinone] | -0.991 | -0.213 | – | – | 14447.4 | 10495.4 | -0.602 | 12471.4 | – | – | – | – | – |
| COc1cc(C[C@@H](CO)[C@H](CO)Cc2ccc(O)c(OC)c2)ccc1O [(+)-Secoisolariciresinol] | 0.313 | 1.018 | 0.666 | 26875.3 | 30111.3 | 23639.2 | – | – | – | – | – | – | – |
| C[C@@H]1O[C@@H](Oc2cc(O)c3c(=O)c(O)c(-c4ccc(O)cc4)oc3c2O)[C@H](O)[C@H](O)[C@H]1O [Rhodionin] | – | -1.086 | – | 6714.99 | 12258.1 | 1171.9 | -1.13 | – | – | – | – | – | – |
| COc1cc2oc(-c3ccccc3)cc(=O)c2c(O)c1O [Negletein] | -1.009 | -0.535 | – | 10644.7 | 14234.4 | 7055.07 | -0.772 | – | – | – | – | – | – |
| C=C(C)[C@H](CC=C(C)C)Cc1c(O)cc(O)c2c1O[C@H](c1ccccc1O)CC2=O [Kushenol A] | 0.183 | 1.024 | 0.603 | 26122.8 | 28541 | 23704.6 | – | – | – | – | – | – | – |
| O=c1c(-c2ccc(O)cc2)coc2cc(O[C@@H]3O[C@H](CO)[C@@H](O)[C@H](O)[C@H]3O)cc(O)c12 [Genistin] | 0.673 | 0.138 | 0.406 | 24334.9 | 34427 | 14242.8 | – | – | – | – | – | – | – |
| COC(=O)c1cc(O)c(O)c(O)c1 [Methyl gallate] | -1.727 | -0.895 | – | 4412 | 5612.12 | 3211.88 | – | – | – | – | -1.311 | – | – |
| (+)-Usnic acid | 0.232 | -0.478 | – | 18398.3 | 29133.2 | 7663.33 | – | – | – | – | – | -0.123 | – |
| O=C(/C=C/c1ccc(O)c(O)c1)OC[C@H]1O[C@@H](OCCc2ccc(O)c(O)c2)[C@H](O)[C@@H](O)[C@@H]1O [Calceolarioside B] | 0.11 | -0.703 | – | – | – | – | -0.297 | 16462.2 | 27671.5 | 5252.85 | – | – | – |
| COc1c(O[C@@H]2O[C@H](CO)[C@@H](O)[C@H](O)[C@H]2O)cc2c(c1O)C(=O)c1c(cc(C)c(O)c1OC)C2=O [Aurantio-obtusin ?-D-glucoside] | -0.961 | -0.271 | – | – | 14810.1 | 9875.55 | -0.616 | 12342.8 | – | – | – | – | – |

| Compound | Z repl 1 | Z Repl 2 | av Z [1] | av puncta (average of raw data 1 and 2) | raw data 1 (puncta) | raw data 2 (puncta) | av Z [2] | av puncta [3] | raw data 1 (raw puncta) | raw data 2 (raw puncta) | AvZ (average z score of seeding, SDs from the mean level of seeding) | av Z [4] | av Z [5] |
| --- | --- | --- | --- | --- | --- | --- | --- | --- | --- | --- | --- | --- | --- |
| Oc1cc(O)c2c(c1)O[C@@]1(c3ccc(O)c(O)c3)Oc3cc(O)c4c(c3[C@@H]2[C@H]1O)O[C@H](c1ccc(O)c(O)c1)[C@H](O)C4 [Procyanidin A2] | -0.531 | -0.919 | – | – | 19975.5 | 2954.48 | -0.725 | 11465 | – | – | – | – | – |
| COc1cc(/C=C/c2cc(O)cc(O)c2)ccc1O [Isorhapontigenin] | 1.299 | 0.571 | – | 30407 | 41947.4 | 18866.6 | – | – | – | – | – | – | 0.935 |
| CCCC(=O)c1c(O)c(Cc2c(O)c(Cc3c(O)c(C)c(OC)c(C(=O)CCC)c3O)c(O)c(C(=O)[C@@H](C)CC)c2O)c(O)c(C)c1OC [Agrimol B] | -1.539 | -0.722 | – | 6464.64 | 7875.9 | 5053.37 | -1.13 | – | – | – | – | – | – |
| COc1cc(/C=C/CO)ccc1O [Coniferyl alcohol] | 0.738 | 0.319 | – | 25693.5 | 35213 | 16173.9 | – | – | – | – | 0.529 | – | – |
| OCc1ccccc1O [Salicyl alcohol] | -0.325 | -0.555 | – | – | – | – | – | 14639.5 | 22445.8 | 6833.28 | -0.44 | – | – |
| COc1cc(-c2oc3cc(O)cc(O)c3c(=O)c2O[C@@H]2O[C@H](CO[C@@H]3O[C@@H](C)[C@H](O)[C@@H](O)[C@H]3O)[C@@H](O)[C@H](O)[C@H]2O)ccc1O [Narcissin] | 0.249 | -0.653 | – | – | – | – | -0.202 | 17563.5 | 29338.6 | 5788.5 | – | – | – |
| O=C(O[C@@H]1Cc2c(O)cc(O)cc2O[C@@H]1c1ccc(O)c(O)c1)c1cc(O)c(O)c(O)c1 [(-)-Epicatechin gallate] | -1.161 | -0.434 | – | 10272.2 | 12408.5 | 8135.9 | -0.797 | – | – | – | – | – | – |
| CC=C1[C@H](O[C@@H]2O[C@H](CO)[C@@H](O)[C@H](O)[C@H]2O)OC=C(C(=O)OC)[C@H]1CC(=O)OC[C@H]1O[C@@H](OCCc2ccc(O)cc2)[C@H](O)[C@@H](O)[C@@H]1O (stereo in doubt) [Specneuzhenide] | -0.904 | 0.064 | – | – | – | – | -0.42 | 14474.2 | 15493.9 | 13454.5 | – | – | – |
| O=c1ccoc2cc(O)cc(O)c12 [5,7-Dihydroxychromone] | -1.184 | -0.309 | – | – | 12131.6 | 9469.43 | -0.746 | 10800.5 | – | – | – | – | – |
| C[C@@H]1O[C@@H](Oc2cc(O)c3c(=O)c(O[C@@H]4O[C@@H](C)[C@H](O)[C@@H](O)[C@H]4O)c(-c4ccc(O)cc4)oc3c2)[C@H](O)[C@H](O)[C@H]1O [Kaempferitrin] | -1.403 | -0.446 | – | 8757.09 | 9507.36 | 8006.82 | -0.924 | – | – | – | – | – | – |
| Cc1cc2c(C(C)C)c(O)c(O)c(C=O)c2c(O)c1-c1c(C)cc2c(C(C)C)c(O)c(O)c(C=O)c2c1O [Gossypol] | -2.171 | -0.607 | – | 3285.13 | 287.373 | 6282.89 | -1.389 | – | – | – | – | – | – |
| O=c1c(O[C@@H]2O[C@@H](CO)[C@H](O)[C@H]2O)c(-c2ccc(O)c(O)c2)oc2cc(O)cc(O)c12 [Avicularin] | 1.115 | 1.158 | – | 32432 | 39734.3 | 25129.7 | – | – | – | – | – | – | 1.136 |
| CCCOC(=O)c1cc(O)c(O)c(O)c1 [Propyl gallate] | -0.716 | -0.982 | – | 10013.9 | 17751.7 | 2276.1 | – | – | – | – | -0.849 | – | – |
| O=C(O[C@@H]1O[C@@H]2COC(=O)c3cc(O)c(O)c(O)c3-c3c(cc(O)c(O)c3O)C(=O)O[C@H]([C@H]1O)[C@@H]2O)c1cc(O)c(O)c(O)c1 [Corilagin] | -1.842 | -1.134 | – | 2445.41 | 4240.16 | 650.661 | -1.488 | – | – | – | – | – | – |
| COc1cc(O)c2c(=O)c(O)c(-c3ccc(O)c(O)c3)oc2c1 [Rhamnetin] | -0.386 | 0.151 | – | 18050.7 | 21720.4 | 14381.1 | – | – | – | – | – | -0.117 | – |
